Test results reported in PubChem BioAssay (NCI).
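Five concentrations, 48 hours, 96-well plates. Here, GI50 denotes the concentration required for 50% inhibition of growth. TGI is the concentration that stops growth completely.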

Assays:
Test in all cases: NCI-60 cell line screen, 48 h
OVCAR-8 ovarian = test system: OVCAR-8 ovarian
SNB-19 CNS = test system: SNB-19 CNS
NCI/ADR-RES ovarian = test system: NCI/ADR-RES ovarian
EKVX NSCLC = test system: EKVX NSCLC
HOP-62 NSCLC = test system: HOP-62 NSCLC
MOLT-4 leukemia = test system: MOLT-4 leukemia
SNB-75 CNS = test system: SNB-75 CNS
HT29 colon = test system: HT29 colon
HOP-92 NSCLC = test system: HOP-92 NSCLC
HL-60(TB) leukemia = test system: HL-60(TB) leukemia

Structure (SMILES) | GI50 (OVCAR-8 ovarian) | TGI (OVCAR-8 ovarian) | GI50 (SNB-19 CNS) | TGI (SNB-19 CNS) | GI50 (NCI/ADR-RES ovarian) | TGI (NCI/ADR-RES ovarian) | GI50 (EKVX NSCLC) | TGI (EKVX NSCLC) | GI50 (HOP-62 NSCLC) | TGI (HOP-62 NSCLC) | GI50 (MOLT-4 leukemia) | TGI (MOLT-4 leukemia) | GI50 (SNB-75 CNS) | TGI (SNB-75 CNS) | GI50 (HT29 colon) | TGI (HT29 colon) | GI50 (HOP-92 NSCLC) | TGI (HOP-92 NSCLC) | TGI (HL-60(TB) leukemia) | GI50 (HL-60(TB) leukemia)
Cc1cc(N2CCOCC2)nc(N(CCNc2ccnc3cc(Cl)ccc23)Cc2ccco2)n1 | 3.84 µM | > 100 µM | 6.49 µM | 48.1 µM | 4.5 µM | 68.8 µM | 12.7 µM | 35.4 µM | 3.62 µM | 31.3 µM | 3.41 µM | > 100 µM | 2.59 µM | 7.77 µM | 1.92 µM | 5.53 µM | 2.1 µM | 8.19 µM |  | 
CCOC(=O)/C(=C/c1cc(OC)ccc1OC)CC(=O)O |  | > 100 µM |  | > 100 µM |  |  |  | > 100 µM |  |  |  | > 31.6 µM |  | > 100 µM |  | > 100 µM |  | > 100 µM | > 31.6 µM | 
Cn1c(O)c(C=N)c(=O)n(C)c1=O |  | > 100 µM |  | > 100 µM |  |  |  | > 100 µM |  |  |  | > 100 µM |  | > 100 µM |  | > 100 µM |  | > 100 µM | > 100 µM | 
O=[N+]([O-])c1ccc(Oc2cccnc2)c([N+](=O)[O-])c1 | 3.52 µM | > 100 µM | 24.3 µM | > 100 µM |  |  | 14.6 µM | 32.2 µM | 5.95 µM | 27.9 µM | 6.08 µM | 32.2 µM | 2.76 µM | 38.4 µM | 3.5 µM | 13.8 µM | 2.29 µM | 13 µM |  | 
c1ccc2c(c1)nnn1c3cnccc3nc21 |  | > 100 µM |  | > 100 µM |  |  |  | > 100 µM |  | > 100 µM |  | 54.9 µM |  | > 100 µM |  | 80.3 µM |  | 67 µM | 33 µM | 
COC(=O)C(=C\Sc1ccccc1)/C=C/C(=O)OC(C)(C)C |  | 31.2 µM |  | 15.3 µM |  |  |  | 24.9 µM |  | 34.8 µM |  | 9.44 µM |  | 28.5 µM |  | 36.1 µM |  | 13.3 µM | 3.73 µM | 
CCCCCCCCCCCCCCCCc1c(C(=O)OC)[nH]c(=S)[nH]c1=O |  | > 50 µM |  | > 50 µM |  |  |  | > 50 µM |  | > 50 µM |  | > 50 µM |  | > 50 µM |  | > 50 µM |  | 41 µM | > 50 µM | 
[Ce+3].[Cl-].[O-]/N=C(\c1ccccc1)c1ccccn1.[O-]/N=C(\c1ccccc1)c1ccccn1.[O-]/N=C(\c1ccccc1)c1ccccn1 | 37.9 µM | > 100 µM | 42.6 µM | > 100 µM |  |  | 30.2 µM | > 100 µM | 30.3 µM | > 100 µM | 27.7 µM | > 100 µM | 15.1 µM | 66 µM | 72 µM | > 100 µM | 25.1 µM | > 100 µM | 60.2 µM | 18.7 µM
Cc1cc(=O)[nH]c(CNC(=O)c2cccc3ccccc23)n1 |  | > 100 µM |  | > 100 µM |  |  |  | > 100 µM |  | > 100 µM |  | > 100 µM |  | > 100 µM |  | > 100 µM |  | > 100 µM | > 100 µM | 
COC(=O)C1C(=O)O[C@@H](c2ccc(OC)cc2)C1C(=O)OC (stereo partly drawn) |  | > 100 µM |  | > 100 µM |  |  |  | > 100 µM |  | > 100 µM |  | > 100 µM |  | > 100 µM |  | > 100 µM |  | > 100 µM |  | 
NCC(=O)Nc1ccc(-n2nc(C(F)(F)F)cc2-c2ccc3c(ccc4ccccc43)c2)cc1 | 0.929 µM | 3.15 µM |  |  | 1.12 µM | 3.12 µM |  |  | 1.32 µM | 2.74 µM | 0.809 µM | 4.01 µM | 1.26 µM | 2.79 µM | 0.937 µM | 2.27 µM | 1.27 µM | 2.65 µM | 3.42 µM | 1.3 µM
Cc1cc(NC(=O)NC(=O)c2ccccc2[N+](=O)[O-])ccc1Oc1ncc(Cl)cn1 |  | > 37.9 µM |  | > 66.2 µM |  |  |  | > 100 µM |  | 19.4 µM |  | > 100 µM |  | 1.59 µM |  | 3.38 µM |  |  | 0.137 µM | 
COC(=O)C1=C2C3=C(C(=O)c4ccccc4C3=O)N(Cc3ccccc3)C2(OC(C)=O)C=CC1=O (stereo not drawn) | 22.4 µM | 83 µM | 31.3 µM | > 100 µM | 8.56 µM | > 100 µM | 23.6 µM | 79.9 µM | 2.94 µM | 13.7 µM | 0.846 µM | > 100 µM | 40.3 µM | > 100 µM | 37 µM | > 100 µM | 0.85 µM | 19.7 µM |  | 
Nc1ccccc1C#Cc1ccccc1C#Cc1ccccc1N | 20.7 µM | 49.4 µM | 23.3 µM | 65.8 µM | 13 µM | 73.3 µM | 8.03 µM | 32.8 µM | 11 µM | 26.7 µM | 2.12 µM | 11.9 µM | 23.7 µM | 70.3 µM | 5.98 µM | > 100 µM | 3.62 µM | 15.6 µM |  | 
O=C(Nc1cccc(-n2cc(-c3ccncc3)c(-c3cc(O)cc(Cl)c3)n2)c1)Nc1ccc(Cl)c(Cl)c1 | 2.02 µM | 5.06 µM | 3.18 µM | 19 µM | 3.21 µM | > 100 µM |  |  | 2.82 µM | 8.51 µM | 1.43 µM | 5.16 µM | 1.38 µM | 4.82 µM | 1.92 µM | 3.9 µM |  |  |  | 
CCC1(O)C(=O)OCc2c1cc1n(c2=O)Cc2c-1nc1ccccc1c2OC (stereo not drawn) |  | > 100 µM |  | > 29.2 µM |  |  |  | > 54.5 µM |  | < 0.01 µM |  | < 0.0195 µM |  | 0.129 µM |  | > 87.1 µM |  | 3.57 µM | < 0.0341 µM | 
Cc1ccc(NC(=O)C2C(=O)C(=O)N(c3ccc(C)cc3)C2=O)cc1 (stereo not drawn) |  | > 100 µM |  | > 100 µM |  |  |  | > 100 µM |  | > 100 µM |  | > 100 µM |  |  |  | > 100 µM |  | > 100 µM | > 100 µM | 
